# Article PMC8365601, “Terphenyl-Based Small-Molecule Inhibitors of Programmed Cell Death-1/Programmed Death-Ligand 1 Protein–Protein Interaction” (Journal of Medicinal Chemistry, 2021)
# Where two headings read alike, the source gives them in different places.
# Key:
# [1] = target: T1, human PD-L1 (Homo sapiens, UniProt Q9NZQ7); experiment: 1H NMR titration with human PD-L1; assay type: binding; conditions: molar ratio 1:1
# T1 construct: pET-21b plasmid carrying the PD-L1 gene (amino acids 18–134); made in house; host or cells: Escherichia coli BL21
# Protocol: NMR spectra were recorded in PBS pH 7.4 containing 10% (v/v) of D2O added to the samples to provide the lock signal. Water suppression was carried out using the WATERGATE sequence. All the spectra were recorded at 300 K using a Bruker AVANCE 600 MHz spectrometer with the cryo-platform. The spectra were recorded at the ligand/protein ratio of 1:1, unless stated otherwise. The samples were prepared by adding small amounts of a 50 mM ligand stock solution in DMSO to the protein solution (0.20 mL) of PD-L1 fragment at a concentration of 0.2 mM. Spectra were visualized using TopSpin 4.0.2.
# [2] = test system: primary CD4+ and CD8+ T cells (PBMCs); experiment: T-cell activation (TCA) assay, PBMCs with CHO/TCRAct/PD-L1 cells, flow cytometry; assay type: cell-based, human; conditions: 48 h; compounds 0.1, 0.5, 2.5 μM; mAbs 5 μg/mL
# Protocol: A standard ICB assay relies on artificial Jurkat-ECs, which are surrogates of T-cells. To verify the potential of the compounds to reactivate the PD-L1-blocked primary T cells, a modified assay termed T-cell activation (TCA) was carried out.[32] In this assay, human primary peripheral blood mononuclear cells (PBMCs) are allowed to make contact with CHO/TCRAct/PD-L1 cells alone or in the presence of PD-1/PD-L1 blockers, and the activation of CD4^+ and CD8^+ T cell is monitored by flow cytometry.
# Anticoagulant citrate dextrose-A-treated blood from healthy donors was purchased from the Regional Center of Blood Donation and Blood Therapy in Krakow, Poland. PBMCs were isolated from whole blood by density gradient centrifugation using Pancoll human separating solution (PAN-Biotech GmbH, Aidenbach, Germany). The separated cells were washed and resuspended in RPMI 1640 medium (Biowest) containing 10% FBS (Biowest). PBMCs were added at an amount of 3 × 10^5 to CHO, CHO/TCRAct, or CHO/TCRAct/PD-L1 cells preseeded on 24-well plates in the presence of either anti-PD-L1 mAbs (at the final concentration 5 μg/mL): durvalumab (Selleckchem), atezolizumab (Selleckchem), or avelumab (MedChemExpress) or tested compounds at the concentrations 0.1, 0.5, and 2.5 μM. Untreated cells were used as controls for antibody treatment, while DMSO-treated cells [0.1% (v/v)] were used as controls for compound treatment. The cells were incubated for 48 h (37 °C, 5% CO2) and then detached from the plates with TrypLe Select Enzyme (Thermo Fisher). PBMCs were stained for 20 min at room temperature with the antibodies: anti-CD4-FITC, anti-CD8-BV510, anti-CD69-APC, anti-CD25-PE, anti-HLA-DR-PerCP, and anti-PD1-PECy7 (Becton Dickinson Biosciences, BD). Following two washing steps, the cells were analyzed with a FACSCanto II cytometer. Data analysis was carried out with FlowJo software, followed by statistical significance calculations done with Origin Pro 2020 software (OriginLab). Statistical significance was analyzed with one-way analysis of variance (ANOVA), followed by the Fisher’s posthoc test: *p < 0.05, **p < 0.01, […].
# [3] = target: T2, PD-1/PD-L1 interaction (Homo sapiens, UniProt Q9NZQ7); experiment: PD-1/PD-L1 ICB assay (Jurkat-ECs with CHO/TCRAct/PD-L1 cells, luciferase); assay type: cell-based
# T2 construct: host or cells: CHO-K1 (CHO/TCRAct/PD-L1) and Jurkat effector cells
# Protocol: After a successful optimization of the terphenyl compounds, the activity of the optimized molecules 7a and 8a–j in a cellular context was assessed. To this end, we first performed the PD-1/PD-L1 ICB assay. In this assay, T-cell receptor (TCR)-mediated activation of Jurkat effector cells (Jurkat-ECs) is reduced by the presence of PD-L1, exposed at the surface of CHO/TCRAct/PD-L1 cells (Figure 3A).
# The functional assay of the blockade of PD-1/PD-L1 interaction in vitro (PD-1/PD-L1 Blockade Bioassay, Promega) was performed according to the manufacturer’s protocol. CHO/TCRAct/PD-L1 cells or CHO/TCRAct or CHO-K1 cells were seeded on 96-well white plates at the density of 10,000 cells/well and the next day overlaid with Jurkat T cells (20,000 cells/well) in the presence of increasing concentrations of the compounds with DMSO only as a control (the concentration of DMSO was kept constant at 0.1%) or atezolizumab, as a positive control, anti-PD-L1 monoclonal antibody (Selleckchem). The 2.5-fold dilutions of atezolizumab were prepared in the assay buffer (RPMI 1640 + 1% FBS) on the day of the assay. Activation of the Jurkat T cells, reflected by luciferase activity, was monitored by luminescence measurements after 6 h of incubation (37 °C, 5% CO2), and 20 min of additional incubation with the Bio-Glo assay reagent (Promega) at room temperature. The luminescence was read on a Spark microplate reader (Tecan). The data are presented as fold induction of the luminescence signal relative to either untreated (for atezolizumab) or DMSO-treated (for compound) cells. Data points represent mean ± SD values from three to five independent experiments. Half-maximal effective concentrations (EC50 values) were calculated from the Hill curve fitting to the experimental data using Origin Pro 2020 software (OriginLab).
# T2 sequence (Q9NZQ7 19-290): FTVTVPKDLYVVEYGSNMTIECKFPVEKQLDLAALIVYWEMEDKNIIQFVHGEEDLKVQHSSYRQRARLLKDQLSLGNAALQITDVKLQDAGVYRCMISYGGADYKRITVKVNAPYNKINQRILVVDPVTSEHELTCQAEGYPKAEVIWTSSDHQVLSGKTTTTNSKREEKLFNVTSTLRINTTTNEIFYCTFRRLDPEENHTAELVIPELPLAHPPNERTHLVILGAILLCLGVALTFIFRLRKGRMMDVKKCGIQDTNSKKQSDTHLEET
# T1 sequence (Q9NZQ7 18-134): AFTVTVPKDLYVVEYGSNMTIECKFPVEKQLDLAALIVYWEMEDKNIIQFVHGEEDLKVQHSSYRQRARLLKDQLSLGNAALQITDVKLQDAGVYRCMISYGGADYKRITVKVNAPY
compound,measurement,setting,value
"COc1cc(-c2cccc(-c3ccc4c(c3)OCCO4)c2Cl)ccc1CNC(CO)(CO)CO [8j, 2-(((3′-(Benzo-1,4-dioxan-6-yl)-2′-chloro-3-methoxy-[1,1′-biphenyl]-4-yl)methyl)amino)-2-(hydroxymethyl)propane-1,3-diol]",change of hPD-L1 1H NMR spectrum on adding compound,[1],broadening of the hPD-L1 proton signals
same,numbers of PD-1-positive T cells,[2],significant increase
same,"numbers of activated, CD25-positive and HLA-DR-positive T-cells",[2],increased
same,selectivity of PD-1/PD-L1-blocking activity versus cytotoxicity,"[3]; EC50 (tox.) vs EC50 (bio.), Figure 3F",highest selectivity
same,EC50,"[3]; Jurkat-ECs with CHO/TCRAct/PD-L1, 6 h, SI csv, read-out: Bioactivity (EC50 in the ICB assay)",1030 ± 150 nM
same,EC50,[3]; read-out: EC50 in cell-based assays,~1000 nM
